This note sets out measurements from patent publication US8349828B2, “Azatricyclic antibiotic compounds” (Actelion Pharmaceuticals Ltd., priority 2008, dated 2013).

For this experiment, the system named is M. catarrhalis A894. As to the kind of experiment: MIC determination by microdilution in cation-adjusted Mueller-Hinton Broth (CLSI M7-A7). As to conditions: for MIC: Moraxella catarrhalis, A894, microdilution method. The experiment is classed as cell-based. How it is done: Minimal inhibitory concentrations (MICs, in mg/l) were determined in cation-adjusted Mueller-Hinton Broth by a microdilution method following the description given in “Methods for Dilution Antimicrobial Susceptibility Tests for Bacteria that Grow Aerobically”, Approved standard, 7th ed., Clinical and Laboratory Standards Institute (CLSI) Document M7-A7, Wayne, Pa., USA, 2006. All Example compounds were tested against several Gram-positive and Gram-negative bacteria.
(In general: In broth dilution the organism is exposed to a series of concentrations in liquid medium.)

In brackets after ≈: the same amount, converted by molar mass. Some results are limits rather than exact numbers.

As for `O=C1CSc2ccc(N3C[C@@H](CCNCC4Cc5cccc6ccc(=O)n4c56)OC3=O)cc2N1` (mixture of isomers) [Example 26, (RS)-2-({2-[(R)-2-oxo-3-(3-oxo-3,4-dihydro-2H-benzo[1,4]thiazin-6-yl)-oxazolidin-5-yl]-ethylamino}-methyl)-1,2-dihydro-pyrrolo[3,2,1-ij]quinolin-4-one], the MIC is at most 0.063 µg/mL.

Regarding `O=C1COc2ccc(N3C[C@@H](CCNCC4Cc5cccc6ccc(=O)n4c56)OC3=O)cc2N1` (mixture of isomers) [Example 27, (RS)-2-({2-[(R)-2-oxo-3-(3-oxo-3,4-dihydro-2H-benzo[1,4]oxazin-6-yl)-oxazolidin-5-yl]-ethylamino}-methyl)-1,2-dihydro-pyrrolo[3,2,1-ij]quinolin-4-one], the MIC is at most 0.063 µg/mL.

In turn, `O=C1CSc2ccc(N3C[C@@H](CNCC4Cc5cccc6ccc(=O)n4c56)OC3=O)cc2N1` (mixture of isomers) [Example 28, (RS)-2-({[(R)-2-oxo-3-(3-oxo-3,4-dihydro-2H-benzo[1,4]thiazin-6-yl)-oxazolidin-5-ylmethyl]-amino}-methyl)-1,2-dihydro-pyrrolo[3,2,1-ij]quinolin-4-one] showed a minimum inhibitory concentration (MIC) of at most 0.063 µg/mL.

In turn, `O=C1COc2ccc(N3C[C@H](CCNCC4Cc5cccc6ncc(=O)n4c56)OC3=O)nc2N1` (mixture of isomers) [Example 31, (RS)-5-({2-[(S)-2-oxo-3-(3-oxo-3,4-dihydro-2H-pyrido[3,2-b][1,4]oxazin-6-yl)-oxazolidin-5-yl]-ethylamino}-methyl)-5,6-dihydropyrrolo[1,2,3-de]quinoxalin-3-one] yielded an MIC of at most 0.063 µg/mL.

Regarding `O=C1CSc2ccc(N3C[C@@H](CCN[C@@H]4Cc5c(F)ccc6ccc(=O)n(c56)C4)OC3=O)cc2N1` (racemic) [Example 7, (6RS)-8-fluoro-6-{2-[(RS)-2-oxo-3-(3-oxo-3,4-dihydro-2H-benzo[1,4]thiazin-6-yl)-oxazolidin-5-yl]-ethylamino}-6,7-dihydro-5H-pyrido[3,2,1-ij]quinolin-3-one], the minimal inhibitory concentration (MIC) is at most 0.063 µg/mL.

As for `O=C1CSc2ccc(N3C[C@@H](CNC[C@H]4Cc5c(F)ccc6ccc(=O)n4c56)OC3=O)cc2N1` [Example 6, (R)-9-fluoro-2-({[(R)-2-oxo-3-(3-oxo-3,4-dihydro-2H-benzo[1,4]thiazin-6-yl)-oxazolidin-5-ylmethyl]-amino}-methyl)-1,2-dihydro-pyrrolo[3,2,1-ij]quinolin-4-one], the MIC was at most 0.063 µg/mL.

`O=C1COc2ccc(N3C[C@@H](CNC[C@H]4Cc5c(F)ccc6ccc(=O)n4c56)OC3=O)cc2N1` [Example 8, (R)-9-fluoro-2-({[(R)-2-oxo-3-(3-oxo-3,4-dihydro-2H-benzo[1,4]oxazin-6-yl)-oxazolidin-5-ylmethyl]-amino}-methyl)-1,2-dihydro-pyrrolo[3,2,1-ij]quinolin-4-one]: inhibition of growth (MIC) required 0.125 µg/mL (≈ 0.269 µM).

`O=C1COc2ccc(N3C[C@@H](CNC[C@@H]4Cc5c(F)ccc6ccc(=O)n4c56)OC3=O)cc2N1` [Example 16, (S)-9-fluoro-2-({[(R)-2-oxo-3-(3-oxo-3,4-dihydro-2H-benzo[1,4]oxazin-6-yl)-oxazolidin-5-ylmethyl]-amino}-methyl)-1,2-dihydro-pyrrolo[3,2,1-ij]quinolin-4-one]: inhibition of growth (MIC) required 0.125 µg/mL (≈ 0.269 µM).

Take `O=C1CSc2ccc(N3C[C@@H](CCNC[C@@H]4Cc5c(F)ccc6ccc(=O)n4c56)OC3=O)cc2N1` [Example 17, (S)-9-fluoro-2-({2-[(R)-2-oxo-3-(3-oxo-3,4-dihydro-2H-benzo[1,4]thiazin-6-yl)-oxazolidin-5-yl]-ethylamino}-methyl)-1,2-dihydro-1.5 pyrrolo[3,2,1-ij]quinolin-4-one]: where the note is “microdilution method”, the “MIC M. catarrhalis A894” value is “≦0.063 mg/l”.

In turn, `O=C1CSc2ccc(N3C[C@@H](CCNC[C@H]4Cc5c(F)ccc6ccc(=O)n4c56)OC3=O)cc2N1` [Example 18, (R)-9-fluoro-2-({2-[(R)-2-oxo-3-(3-oxo-3,4-dihydro-2H-benzo[1,4]thiazin-6-yl)-oxazolidin-5-yl]-ethylamino}-methyl)-1,2-dihydropyrrolo[3,2,1-ij]quinolin-4-one] came in with an MIC of at most 0.063 µg/mL.

Molecule `O=C1CSc2ccc(N3C[C@H](CCNC[C@@H]4Cc5c(F)ccc6ccc(=O)n4c56)OC3=O)cc2N1` [Example 19, (S)-9-fluoro-2-({2-[(S)-2-oxo-3-(3-oxo-3,4-dihydro-2H-benzo[1,4]thiazin-6-yl)-oxazolidin-5-yl]-ethylamino}-methyl)-1,2-dihydropyrrolo[3,2,1-ij]quinolin-4-one] returned a minimum inhibitory concentration (MIC) of at most 0.063 µg/mL.

Molecule `O=C1CSc2ccc(N3C[C@H](CCNC[C@H]4Cc5c(F)ccc6ccc(=O)n4c56)OC3=O)cc2N1` [Example 20, (R)-9-fluoro-2-({2-[(S)-2-oxo-3-(3-oxo-3,4-dihydro-2H-benzo[1,4]thiazin-6-yl)-oxazolidin-5-yl]-ethylamino}-methyl)-1,2-dihydropyrrolo[3,2,1-ij]quinolin-4-one] showed a minimum inhibitory concentration (MIC) of at most 0.063 µg/mL.

Take `O=C1CSc2ccc(N3C[C@H](CCNC[C@@H]4Cc5cccc6ncc(=O)n4c56)OC3=O)cc2N1` [Example 29, (S)-5-({2-[(S)-2-oxo-3-(3-oxo-3,4-dihydro-2H-benzo[1,4]thiazin-6-yl)-oxazolidin-5-yl]-ethylamino}-methyl)-5,6-dihydro-pyrrolo[1,2,3-de]quinoxalin-3-one]: the minimal inhibitory concentration (MIC) is at most 0.063 µg/mL.

Turning to `O=C1CSc2ccc(N3C[C@@H](CNC[C@@H]4Cc5cccc6ncc(=O)n4c56)OC3=O)cc2N1` [Example 30, (S)-5-({[(R)-2-oxo-3-(3-oxo-3,4-dihydro-2H-benzo[1,4]thiazin-6-yl)oxazolidin-5-ylmethyl]-amino}-methyl)-5,6-dihydro-pyrrolo[1,2,3-de]quinoxalin-3-one], the MIC stood at 0.125 µg/mL (≈ 0.27 µM).

As a reminder, the MIC is the smallest concentration in the dilution series that meets the test's criterion for growth inhibition. Read a low MIC as greater potency.
